Test results: ChEMBL document CHEMBL5446079, “Affinity Biochemical Literature for EUbOPEN Chemogenomic Library” (2024)

What was measured:
[1] = target: T1, Bromodomain and PHD finger-containing protein 3 (Homo sapiens, UniProt Q9ULD4)
T1 sequence (Q9ULD4 whole entry): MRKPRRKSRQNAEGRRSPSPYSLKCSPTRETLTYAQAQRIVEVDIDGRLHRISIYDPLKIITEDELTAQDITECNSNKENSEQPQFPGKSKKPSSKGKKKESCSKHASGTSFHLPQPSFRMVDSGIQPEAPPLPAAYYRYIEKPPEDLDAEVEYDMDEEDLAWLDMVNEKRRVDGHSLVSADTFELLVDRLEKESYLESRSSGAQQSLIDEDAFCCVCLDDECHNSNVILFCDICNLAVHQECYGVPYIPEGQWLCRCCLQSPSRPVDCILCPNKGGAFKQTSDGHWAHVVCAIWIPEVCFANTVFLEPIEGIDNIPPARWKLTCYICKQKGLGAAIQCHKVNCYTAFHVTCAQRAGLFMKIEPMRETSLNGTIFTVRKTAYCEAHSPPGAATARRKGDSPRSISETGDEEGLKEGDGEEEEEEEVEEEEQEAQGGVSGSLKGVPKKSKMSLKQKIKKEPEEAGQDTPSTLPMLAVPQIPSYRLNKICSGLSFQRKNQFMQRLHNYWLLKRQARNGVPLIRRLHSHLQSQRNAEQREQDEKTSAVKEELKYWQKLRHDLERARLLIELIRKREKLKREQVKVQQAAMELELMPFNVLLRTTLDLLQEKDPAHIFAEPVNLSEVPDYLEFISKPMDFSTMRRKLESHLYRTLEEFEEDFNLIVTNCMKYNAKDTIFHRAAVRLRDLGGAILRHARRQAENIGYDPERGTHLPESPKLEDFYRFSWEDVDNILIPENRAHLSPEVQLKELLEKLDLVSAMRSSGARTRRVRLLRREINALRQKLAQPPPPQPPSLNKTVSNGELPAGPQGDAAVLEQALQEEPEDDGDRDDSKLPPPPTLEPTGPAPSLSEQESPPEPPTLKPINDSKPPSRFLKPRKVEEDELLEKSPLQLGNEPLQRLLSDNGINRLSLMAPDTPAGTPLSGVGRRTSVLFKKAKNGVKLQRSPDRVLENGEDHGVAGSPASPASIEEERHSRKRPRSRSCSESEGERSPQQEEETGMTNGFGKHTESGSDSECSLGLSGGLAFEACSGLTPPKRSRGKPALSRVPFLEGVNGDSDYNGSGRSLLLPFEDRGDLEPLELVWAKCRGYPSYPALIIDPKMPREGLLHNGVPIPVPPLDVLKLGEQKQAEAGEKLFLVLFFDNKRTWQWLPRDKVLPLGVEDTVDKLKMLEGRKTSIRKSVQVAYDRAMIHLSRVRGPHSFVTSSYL

Peregrin = target: T2, Peregrin (Homo sapiens, UniProt P55201)
T2 sequence (P55201 whole entry): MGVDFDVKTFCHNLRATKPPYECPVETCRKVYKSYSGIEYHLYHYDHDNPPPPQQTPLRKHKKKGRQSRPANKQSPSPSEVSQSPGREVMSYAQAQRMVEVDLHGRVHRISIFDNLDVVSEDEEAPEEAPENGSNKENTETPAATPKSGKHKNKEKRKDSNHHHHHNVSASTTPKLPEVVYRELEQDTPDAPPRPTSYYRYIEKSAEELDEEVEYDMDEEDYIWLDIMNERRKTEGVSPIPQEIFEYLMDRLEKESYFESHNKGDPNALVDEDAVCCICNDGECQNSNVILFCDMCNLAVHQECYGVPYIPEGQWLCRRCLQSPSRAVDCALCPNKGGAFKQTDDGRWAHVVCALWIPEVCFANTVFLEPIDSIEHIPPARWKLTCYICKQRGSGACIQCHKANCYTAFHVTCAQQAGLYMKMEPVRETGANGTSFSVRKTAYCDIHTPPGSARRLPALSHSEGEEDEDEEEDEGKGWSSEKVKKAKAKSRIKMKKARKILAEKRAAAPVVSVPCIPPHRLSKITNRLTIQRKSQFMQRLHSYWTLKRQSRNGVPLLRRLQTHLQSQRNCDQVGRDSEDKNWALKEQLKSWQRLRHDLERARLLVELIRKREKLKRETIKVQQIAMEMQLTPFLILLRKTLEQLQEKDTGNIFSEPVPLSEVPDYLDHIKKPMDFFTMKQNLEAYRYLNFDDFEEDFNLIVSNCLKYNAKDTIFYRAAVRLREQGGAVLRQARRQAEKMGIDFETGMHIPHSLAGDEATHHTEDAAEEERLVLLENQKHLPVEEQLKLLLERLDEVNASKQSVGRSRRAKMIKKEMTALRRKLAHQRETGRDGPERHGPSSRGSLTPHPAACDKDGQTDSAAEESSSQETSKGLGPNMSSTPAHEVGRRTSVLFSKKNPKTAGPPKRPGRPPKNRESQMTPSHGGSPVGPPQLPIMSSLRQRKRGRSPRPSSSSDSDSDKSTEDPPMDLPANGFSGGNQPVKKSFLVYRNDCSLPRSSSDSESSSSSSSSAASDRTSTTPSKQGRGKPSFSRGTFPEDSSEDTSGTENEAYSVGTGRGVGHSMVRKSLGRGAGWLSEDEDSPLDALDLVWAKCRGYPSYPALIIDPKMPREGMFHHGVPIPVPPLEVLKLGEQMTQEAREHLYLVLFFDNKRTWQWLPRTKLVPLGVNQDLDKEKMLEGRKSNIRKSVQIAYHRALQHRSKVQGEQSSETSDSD

[2] = target: T3, Bromodomain-containing protein 1 (Homo sapiens, UniProt O95696)
T3 sequence (O95696 whole entry): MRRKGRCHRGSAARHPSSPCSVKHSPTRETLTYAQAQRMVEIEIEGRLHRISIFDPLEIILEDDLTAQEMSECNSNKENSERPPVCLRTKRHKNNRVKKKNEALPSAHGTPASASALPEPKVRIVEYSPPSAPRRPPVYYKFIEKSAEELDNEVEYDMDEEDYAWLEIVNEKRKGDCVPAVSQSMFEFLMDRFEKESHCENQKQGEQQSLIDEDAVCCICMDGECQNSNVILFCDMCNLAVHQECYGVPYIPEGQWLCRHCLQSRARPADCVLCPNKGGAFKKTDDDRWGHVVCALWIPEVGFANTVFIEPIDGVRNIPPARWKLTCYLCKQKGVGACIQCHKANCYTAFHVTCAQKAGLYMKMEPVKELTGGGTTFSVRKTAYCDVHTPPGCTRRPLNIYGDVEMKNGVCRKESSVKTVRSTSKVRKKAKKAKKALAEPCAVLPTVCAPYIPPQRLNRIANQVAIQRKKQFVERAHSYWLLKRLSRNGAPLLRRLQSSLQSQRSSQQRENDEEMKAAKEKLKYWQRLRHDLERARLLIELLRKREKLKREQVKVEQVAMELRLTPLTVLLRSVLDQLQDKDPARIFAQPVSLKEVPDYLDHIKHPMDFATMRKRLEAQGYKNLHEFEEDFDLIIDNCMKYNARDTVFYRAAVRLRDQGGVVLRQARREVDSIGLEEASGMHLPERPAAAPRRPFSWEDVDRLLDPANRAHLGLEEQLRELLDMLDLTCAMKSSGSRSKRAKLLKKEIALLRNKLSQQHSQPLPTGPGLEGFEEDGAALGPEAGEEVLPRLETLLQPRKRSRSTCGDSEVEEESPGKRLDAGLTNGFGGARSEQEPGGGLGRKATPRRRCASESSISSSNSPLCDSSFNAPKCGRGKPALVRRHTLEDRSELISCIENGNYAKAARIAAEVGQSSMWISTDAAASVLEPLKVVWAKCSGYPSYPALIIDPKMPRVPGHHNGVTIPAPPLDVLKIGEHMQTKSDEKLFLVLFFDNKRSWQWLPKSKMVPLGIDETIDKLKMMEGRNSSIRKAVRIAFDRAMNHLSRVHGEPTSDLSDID

[3] = target: Chromatin remodeling regulator CECR2 (Homo sapiens, UniProt Q9BXF3)
Sequence of Chromatin remodeling regulator CECR2 (Q9BXF3 whole entry): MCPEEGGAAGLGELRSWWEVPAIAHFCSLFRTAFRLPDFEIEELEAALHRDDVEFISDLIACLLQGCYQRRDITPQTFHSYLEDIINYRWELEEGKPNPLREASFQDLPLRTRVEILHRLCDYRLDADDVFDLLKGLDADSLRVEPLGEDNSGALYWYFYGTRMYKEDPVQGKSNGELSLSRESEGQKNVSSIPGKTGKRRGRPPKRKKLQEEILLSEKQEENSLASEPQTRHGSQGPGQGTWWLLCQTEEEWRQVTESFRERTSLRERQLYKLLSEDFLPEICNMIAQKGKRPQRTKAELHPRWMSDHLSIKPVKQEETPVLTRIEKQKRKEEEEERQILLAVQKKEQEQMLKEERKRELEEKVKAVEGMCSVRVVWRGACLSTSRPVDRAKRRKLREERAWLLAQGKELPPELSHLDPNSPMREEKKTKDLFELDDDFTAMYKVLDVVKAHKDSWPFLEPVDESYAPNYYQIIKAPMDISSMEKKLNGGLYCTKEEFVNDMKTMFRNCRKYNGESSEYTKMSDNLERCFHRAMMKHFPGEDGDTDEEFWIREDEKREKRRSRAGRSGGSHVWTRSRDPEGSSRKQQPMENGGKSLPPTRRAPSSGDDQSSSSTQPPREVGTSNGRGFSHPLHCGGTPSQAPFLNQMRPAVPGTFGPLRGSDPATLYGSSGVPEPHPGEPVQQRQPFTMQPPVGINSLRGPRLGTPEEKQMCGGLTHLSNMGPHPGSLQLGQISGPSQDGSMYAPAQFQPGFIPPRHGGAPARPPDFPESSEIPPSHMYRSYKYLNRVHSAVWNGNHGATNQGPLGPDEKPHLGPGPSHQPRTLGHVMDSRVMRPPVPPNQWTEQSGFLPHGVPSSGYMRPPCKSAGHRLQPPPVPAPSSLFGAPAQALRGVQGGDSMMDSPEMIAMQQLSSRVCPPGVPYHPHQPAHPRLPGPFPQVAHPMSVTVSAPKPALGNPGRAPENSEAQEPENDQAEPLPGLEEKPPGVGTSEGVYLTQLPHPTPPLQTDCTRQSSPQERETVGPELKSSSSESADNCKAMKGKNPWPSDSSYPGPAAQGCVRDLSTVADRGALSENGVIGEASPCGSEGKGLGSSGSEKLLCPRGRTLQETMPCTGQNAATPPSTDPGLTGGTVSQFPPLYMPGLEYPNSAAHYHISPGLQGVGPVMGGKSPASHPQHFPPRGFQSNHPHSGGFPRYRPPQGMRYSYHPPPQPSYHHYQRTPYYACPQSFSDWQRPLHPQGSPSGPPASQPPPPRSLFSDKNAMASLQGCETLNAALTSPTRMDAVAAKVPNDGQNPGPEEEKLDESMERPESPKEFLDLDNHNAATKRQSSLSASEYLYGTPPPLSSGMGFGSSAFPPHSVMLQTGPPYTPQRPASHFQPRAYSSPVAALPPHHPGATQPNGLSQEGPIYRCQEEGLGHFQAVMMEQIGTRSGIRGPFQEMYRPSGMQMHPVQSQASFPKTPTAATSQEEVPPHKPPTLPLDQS

[4] = target: Nucleosome-remodeling factor subunit BPTF (Homo sapiens, UniProt Q12830)
[5] = target: Dual specificity protein kinase CLK1 (Homo sapiens, UniProt P49759)
Sequence of Dual specificity protein kinase CLK1 (P49759 whole entry): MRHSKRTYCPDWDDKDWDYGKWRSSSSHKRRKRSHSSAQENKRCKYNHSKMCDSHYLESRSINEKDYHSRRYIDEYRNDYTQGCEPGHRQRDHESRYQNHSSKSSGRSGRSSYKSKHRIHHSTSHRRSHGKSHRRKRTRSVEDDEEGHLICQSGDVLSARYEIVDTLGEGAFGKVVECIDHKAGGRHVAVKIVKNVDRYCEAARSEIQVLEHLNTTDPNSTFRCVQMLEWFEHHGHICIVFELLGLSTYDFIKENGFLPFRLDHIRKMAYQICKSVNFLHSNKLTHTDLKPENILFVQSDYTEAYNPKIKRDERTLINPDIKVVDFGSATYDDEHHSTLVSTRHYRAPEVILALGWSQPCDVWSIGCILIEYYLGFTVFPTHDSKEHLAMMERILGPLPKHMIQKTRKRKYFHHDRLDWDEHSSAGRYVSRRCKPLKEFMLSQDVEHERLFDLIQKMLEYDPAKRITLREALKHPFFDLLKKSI

[6] = target: Dual specificity protein kinase CLK2 (Homo sapiens, UniProt P49760)
Sequence of Dual specificity protein kinase CLK2 (P49760 whole entry): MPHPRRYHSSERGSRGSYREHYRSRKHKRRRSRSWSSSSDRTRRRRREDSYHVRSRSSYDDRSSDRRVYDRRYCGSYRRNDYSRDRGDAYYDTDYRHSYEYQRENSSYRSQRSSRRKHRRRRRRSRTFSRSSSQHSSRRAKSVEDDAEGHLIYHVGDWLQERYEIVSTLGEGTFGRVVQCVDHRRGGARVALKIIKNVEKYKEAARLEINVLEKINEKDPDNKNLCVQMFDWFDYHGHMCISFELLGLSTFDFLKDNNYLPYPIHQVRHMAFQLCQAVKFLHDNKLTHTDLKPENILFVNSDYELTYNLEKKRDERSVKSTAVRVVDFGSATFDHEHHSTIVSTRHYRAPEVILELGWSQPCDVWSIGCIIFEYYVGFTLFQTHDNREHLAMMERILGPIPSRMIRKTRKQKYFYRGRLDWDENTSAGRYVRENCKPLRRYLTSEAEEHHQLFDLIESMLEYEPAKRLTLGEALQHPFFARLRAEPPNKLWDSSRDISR

[7] = target: Dual specificity protein kinase CLK4 (Homo sapiens, UniProt Q9HAZ1)
Sequence of Dual specificity protein kinase CLK4 (Q9HAZ1 whole entry): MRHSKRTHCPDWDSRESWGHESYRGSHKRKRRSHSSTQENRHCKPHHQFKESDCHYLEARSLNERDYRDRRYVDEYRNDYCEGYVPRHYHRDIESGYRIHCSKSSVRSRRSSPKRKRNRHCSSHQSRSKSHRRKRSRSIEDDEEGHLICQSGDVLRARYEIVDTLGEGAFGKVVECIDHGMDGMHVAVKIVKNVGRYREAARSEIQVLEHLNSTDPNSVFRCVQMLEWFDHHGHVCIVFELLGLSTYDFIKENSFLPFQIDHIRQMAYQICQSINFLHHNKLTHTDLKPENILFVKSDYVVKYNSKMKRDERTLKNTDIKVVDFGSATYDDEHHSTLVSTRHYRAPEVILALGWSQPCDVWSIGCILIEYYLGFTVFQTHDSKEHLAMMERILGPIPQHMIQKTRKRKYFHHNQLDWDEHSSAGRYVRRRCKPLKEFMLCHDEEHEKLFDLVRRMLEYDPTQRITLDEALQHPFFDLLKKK

CDK8/Cyclin C = CDK8/Cyclin C (Homo sapiens, UniProt P49336); type: protein-complex assay
Sequence of CDK8/Cyclin C (P49336 whole entry): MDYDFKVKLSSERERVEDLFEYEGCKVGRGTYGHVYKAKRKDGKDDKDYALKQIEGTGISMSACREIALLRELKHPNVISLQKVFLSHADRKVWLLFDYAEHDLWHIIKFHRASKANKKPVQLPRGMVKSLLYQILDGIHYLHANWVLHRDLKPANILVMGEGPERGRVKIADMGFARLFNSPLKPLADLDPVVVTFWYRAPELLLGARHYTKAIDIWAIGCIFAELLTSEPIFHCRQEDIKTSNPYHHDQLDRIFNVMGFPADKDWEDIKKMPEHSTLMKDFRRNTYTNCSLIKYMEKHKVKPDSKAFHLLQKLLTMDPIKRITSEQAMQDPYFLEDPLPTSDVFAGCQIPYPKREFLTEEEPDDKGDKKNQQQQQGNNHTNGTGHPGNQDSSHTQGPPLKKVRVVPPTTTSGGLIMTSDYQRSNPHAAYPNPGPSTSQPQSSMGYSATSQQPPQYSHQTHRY
Sequence of CDK8/Cyclin C (P24863 whole entry, further chain): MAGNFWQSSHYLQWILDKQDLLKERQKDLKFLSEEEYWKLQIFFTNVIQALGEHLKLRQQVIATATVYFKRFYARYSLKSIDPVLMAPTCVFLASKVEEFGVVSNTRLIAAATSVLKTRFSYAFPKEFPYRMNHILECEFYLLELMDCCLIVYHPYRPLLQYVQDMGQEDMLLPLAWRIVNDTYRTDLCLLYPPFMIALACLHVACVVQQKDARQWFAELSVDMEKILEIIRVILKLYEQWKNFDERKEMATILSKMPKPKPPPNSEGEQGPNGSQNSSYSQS

[8] = target: T4, Bromodomain-containing protein 9 (Homo sapiens, UniProt Q9H8M2)
T4 sequence (Q9H8M2 whole entry): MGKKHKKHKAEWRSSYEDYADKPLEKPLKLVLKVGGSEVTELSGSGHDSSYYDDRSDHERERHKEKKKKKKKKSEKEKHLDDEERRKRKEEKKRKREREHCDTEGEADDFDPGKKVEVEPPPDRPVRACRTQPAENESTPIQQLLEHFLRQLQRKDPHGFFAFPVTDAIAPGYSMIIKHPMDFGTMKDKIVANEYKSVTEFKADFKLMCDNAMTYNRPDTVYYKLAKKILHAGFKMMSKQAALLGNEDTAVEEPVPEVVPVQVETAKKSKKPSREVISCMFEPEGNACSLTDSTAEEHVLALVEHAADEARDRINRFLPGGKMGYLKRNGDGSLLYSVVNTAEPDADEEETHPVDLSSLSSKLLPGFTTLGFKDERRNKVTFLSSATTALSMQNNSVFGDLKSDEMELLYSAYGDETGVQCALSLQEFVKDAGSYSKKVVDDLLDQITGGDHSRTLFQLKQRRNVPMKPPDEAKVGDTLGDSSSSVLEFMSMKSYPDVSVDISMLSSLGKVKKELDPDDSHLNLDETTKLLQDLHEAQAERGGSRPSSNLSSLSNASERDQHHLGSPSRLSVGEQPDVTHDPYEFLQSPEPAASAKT

SRSF protein kinase 1 = SRSF protein kinase 1 (Homo sapiens, UniProt Q96SB4)
SRSF protein kinase 2 = SRSF protein kinase 2 (Homo sapiens, UniProt P78362)
Sequence of SRSF protein kinase 2 (P78362 whole entry): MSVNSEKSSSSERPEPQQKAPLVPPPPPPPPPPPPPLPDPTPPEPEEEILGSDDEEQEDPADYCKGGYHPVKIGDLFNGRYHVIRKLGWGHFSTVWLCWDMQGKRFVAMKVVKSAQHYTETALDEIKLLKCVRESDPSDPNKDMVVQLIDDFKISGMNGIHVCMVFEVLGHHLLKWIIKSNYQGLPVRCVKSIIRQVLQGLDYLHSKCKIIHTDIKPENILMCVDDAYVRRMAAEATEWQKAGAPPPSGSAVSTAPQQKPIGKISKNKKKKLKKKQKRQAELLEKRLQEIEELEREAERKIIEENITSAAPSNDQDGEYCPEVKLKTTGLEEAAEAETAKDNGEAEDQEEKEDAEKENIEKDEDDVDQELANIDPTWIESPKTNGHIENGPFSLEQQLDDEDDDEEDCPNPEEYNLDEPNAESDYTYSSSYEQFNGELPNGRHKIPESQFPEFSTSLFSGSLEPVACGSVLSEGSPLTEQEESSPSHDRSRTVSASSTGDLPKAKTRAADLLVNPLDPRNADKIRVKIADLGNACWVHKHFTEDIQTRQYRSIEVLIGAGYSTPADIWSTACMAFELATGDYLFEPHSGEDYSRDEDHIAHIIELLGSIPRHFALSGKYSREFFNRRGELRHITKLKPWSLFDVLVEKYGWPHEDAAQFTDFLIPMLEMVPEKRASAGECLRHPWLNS

[9] = target: T5, Histone-lysine N-methyltransferase NSD3 (Homo sapiens, UniProt Q9BZ95)
T5 sequence (Q9BZ95 whole entry): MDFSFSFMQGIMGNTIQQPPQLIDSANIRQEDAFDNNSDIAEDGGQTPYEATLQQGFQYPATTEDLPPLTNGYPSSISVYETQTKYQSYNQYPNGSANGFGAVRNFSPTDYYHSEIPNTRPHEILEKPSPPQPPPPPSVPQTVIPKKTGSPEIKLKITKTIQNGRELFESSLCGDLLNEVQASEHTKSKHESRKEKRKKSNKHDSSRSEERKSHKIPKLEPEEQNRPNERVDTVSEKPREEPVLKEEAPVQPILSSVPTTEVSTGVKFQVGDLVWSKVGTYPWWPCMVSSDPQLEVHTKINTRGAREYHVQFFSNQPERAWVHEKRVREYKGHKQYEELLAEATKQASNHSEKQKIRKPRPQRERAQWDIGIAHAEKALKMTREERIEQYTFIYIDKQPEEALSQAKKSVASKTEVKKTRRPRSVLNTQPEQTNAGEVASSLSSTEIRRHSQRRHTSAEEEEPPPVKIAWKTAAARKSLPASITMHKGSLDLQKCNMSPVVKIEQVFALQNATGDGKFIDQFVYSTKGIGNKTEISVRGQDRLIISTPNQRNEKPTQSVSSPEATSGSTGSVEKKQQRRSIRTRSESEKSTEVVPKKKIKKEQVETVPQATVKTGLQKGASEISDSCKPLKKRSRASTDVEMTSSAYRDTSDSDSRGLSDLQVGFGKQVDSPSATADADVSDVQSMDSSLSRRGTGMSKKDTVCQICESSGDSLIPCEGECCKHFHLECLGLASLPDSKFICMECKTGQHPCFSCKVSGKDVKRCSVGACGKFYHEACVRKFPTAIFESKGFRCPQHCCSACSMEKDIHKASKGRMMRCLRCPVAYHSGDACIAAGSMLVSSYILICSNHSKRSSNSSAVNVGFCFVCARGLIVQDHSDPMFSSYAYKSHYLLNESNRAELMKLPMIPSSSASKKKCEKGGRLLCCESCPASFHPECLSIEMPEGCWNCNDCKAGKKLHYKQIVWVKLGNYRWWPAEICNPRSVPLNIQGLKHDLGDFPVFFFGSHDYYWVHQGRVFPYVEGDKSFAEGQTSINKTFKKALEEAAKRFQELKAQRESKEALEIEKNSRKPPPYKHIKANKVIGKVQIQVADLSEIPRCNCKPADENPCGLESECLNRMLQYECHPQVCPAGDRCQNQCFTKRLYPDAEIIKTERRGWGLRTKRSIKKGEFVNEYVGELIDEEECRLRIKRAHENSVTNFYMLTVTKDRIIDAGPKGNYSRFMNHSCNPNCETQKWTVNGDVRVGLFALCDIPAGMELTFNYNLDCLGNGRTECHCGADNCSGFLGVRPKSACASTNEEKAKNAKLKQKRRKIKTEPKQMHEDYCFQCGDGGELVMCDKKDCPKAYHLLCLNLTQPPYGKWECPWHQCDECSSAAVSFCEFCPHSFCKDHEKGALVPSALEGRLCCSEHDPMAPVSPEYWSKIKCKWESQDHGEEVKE

[10] = target: Protein-arginine deiminase type-4 (Homo sapiens, UniProt Q9UM07)
Sequence of Protein-arginine deiminase type-4 (Q9UM07 whole entry): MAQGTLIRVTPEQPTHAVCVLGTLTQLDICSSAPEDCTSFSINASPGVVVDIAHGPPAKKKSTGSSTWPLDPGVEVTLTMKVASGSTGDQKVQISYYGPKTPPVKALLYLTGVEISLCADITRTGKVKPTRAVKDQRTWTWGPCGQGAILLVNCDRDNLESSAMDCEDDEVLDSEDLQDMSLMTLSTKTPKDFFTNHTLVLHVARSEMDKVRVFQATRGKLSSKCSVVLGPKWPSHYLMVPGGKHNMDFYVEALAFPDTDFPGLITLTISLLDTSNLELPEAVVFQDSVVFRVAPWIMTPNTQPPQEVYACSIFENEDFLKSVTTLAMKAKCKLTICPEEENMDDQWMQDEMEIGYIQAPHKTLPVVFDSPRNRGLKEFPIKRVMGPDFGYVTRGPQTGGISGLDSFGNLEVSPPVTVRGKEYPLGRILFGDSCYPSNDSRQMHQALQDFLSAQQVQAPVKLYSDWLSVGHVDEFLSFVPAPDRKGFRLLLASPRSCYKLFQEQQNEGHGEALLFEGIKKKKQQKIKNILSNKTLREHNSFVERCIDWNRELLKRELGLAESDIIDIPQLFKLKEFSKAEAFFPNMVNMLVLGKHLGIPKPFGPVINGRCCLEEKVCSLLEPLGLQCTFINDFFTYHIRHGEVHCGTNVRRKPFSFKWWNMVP

CCc1cc2cc(NS(=O)(=O)c3ccc(C#N)cc3)ccc2n(CC)c1=O
IC50 [1]: > 100 µM | IC50 (Peregrin): > 100 µM | IC50 [2]: > 100 µM

CN(C)CCCOc1ccc(-c2cc(NCCCn3cccn3)nc(S(C)(=O)=O)n2)cc1
IC50 [3]: 30.3 µM | IC50 [4]: 30.3 µM

COc1cc(Nc2nc(C)cc(-c3cnn4nc(OC)ccc34)n2)cc(C(F)(F)F)c1
IC50 [5]: > 10 µM | IC50 [6]: > 10 µM | IC50 [7]: > 10 µM

CN(C)C(=O)Cn1cc(-c2ccc(-c3nnc4ccccn34)cc2)cn1
IC50 (CDK8/Cyclin C): 0.671 µM

CC(=O)c1cc(-c2ccccc2OCC2CC2)c2ncccn12
Kd [8]: > 20 µM

CN(c1ncccc1CNc1ccnc(-c2cc3cc(Cl)ccc3[nH]2)n1)S(C)(=O)=O
IC50 (SRSF protein kinase 1): > 10 µM | IC50 (SRSF protein kinase 2): > 10 µM

Cc1cc(CN)cc(C)c1-c1ncn(C)c1-c1cncn1C
IC50 [9]: 120 µM

CCn1c(-c2nc3cc(C(=O)N4CCCC(N)C4)ccc3n2C)cc2ccccc21 (centres undefined)
IC50 [10]: > 100 µM
